These results are taken from patent US20240383923A1, “HETEROARYL DERIVATIVE AND USE THEREOF” (VORONOI INC., priority 2022, published 2024).

The subject of this test is BT-474 cancer cells. The test is described as follows: Inhibition of BT-474 cell proliferation (CellTiter-Glo). It counts as cell-based. The following applies: Homo sapiens, BT-474 cells, 120 hours. Here is the method:
BT-474 cancer cells were cultured by using RPMI-1640 medium containing 20% FBS. The BT-474 cancer cells were seeded to a white clear bottom 96 well plate (Corning) at 5,000 cells per well 48 hours before the BT-474 cancer cells were treated with Example Compounds. Example Compounds were diluted in dimethylsulfoxide (3-fold diluted, total 11 concentrations) and 1 μL each was injected so that the final concentration was 0.2 nM to 10 μM. For the measurement of living cells, the cells were stored at room temperature for 10 minutes using the CellTiter-Glo cell viability reagent (Promega) after a predetermined time (120 hours) after the treatment of Example Compounds, and then the luminescence intensity was measured using a reader (SynergyNeo, Biotek). Each test was repeated three times.
The result value was calculated as a cell growth rate (%) compared to a control group. Graphs were plotted and GI50 values were calculated using the GraphPad Prism version 8.0 program, and the results are shown in Table 18 below.
On the technique in general: ATP-based viability assays read luminescence as a measure of living cells.
A word on the GI50: it is the concentration that inhibits growth by half. For `C=CC(=O)N1CCC(Nc2cc3c(Nc4cc(C)c(Oc5ccn6ncnc6c5)cc4OC4CN(C)C4)ncnc3cc2OC)CC1` [Example 4, 1-(4-((4-((4-([1,2,4]triazolo[1,5-a]pyridin-7-yloxy)-5-methyl-2-((1-methylazetidin-3-yl)oxy)phenyl)amino)-7-methoxyquinazolin-6-yl)amino)piperidin-1-yl)prop-2-en-1-one], the GI50 lay in the range of 100 to 500 nM.

In the case of `C=CC(=O)N1CCC(Oc2cc3c(Nc4ccc(Oc5ccn(-c6cnc(OC)nc6)n5)cc4OC)ncnc3cc2OC)CC1` [Example 10, 1-(4-((7-methoxy-4-((2-methoxy-4-((1-(2-methoxypyrimidin-5-yl)-1H-pyrazol-3-yl)oxy)phenyl)amino)quinazolin-6-yl)oxy)piperidin-1-yl)prop-2-en-1-one], the 50% growth inhibitory concentration (GI50) was in the range of 100 to 500 nM.

With `C=CC(=O)N1CCC(Oc2cc3c(Nc4cc(Cl)c(Oc5cccc(OC)c5)cc4OC)ncnc3cc2OC)CC1` [Example 11, 1-(4-((4-((5-chloro-2-methoxy-4-(3-methoxyphenoxy)phenyl)amino)-7-methoxyquinazolin-6-yl)oxy)piperidin-1-yl)prop-2-en-1-one], the concentration for 50% growth inhibition (GI50) was not above 50 nM.

For the compound `COc1cc(Oc2ccn3ncnc3c2)c(C)cc1Nc1ncnc2cc(OC)c(OC3CCN(C(=O)C(F)Cl)CC3)cc12` (stereo not drawn) [Example 14, 1-(4-((4-((4-([1,2,4]triazolo[1,5-a]pyridin-7-yloxy)-2-methoxy-5-methylphenyl)amino)-7-methoxyquinazolin-6-yl)oxy)piperidin-1-yl)-2-chloro-2-fluoroethan-1-one], the concentration for 50% growth inhibition (GI50) was not above 50 nM.

Take `C=CC(=O)N1CC2CC1CC2Oc1cc2c(Nc3cc(C)c(Oc4ccn5ncnc5c4)cc3OC)ncnc2cc1OC` (stereo not drawn) [Example 18, 1-(5-((4-((4-([1,2,4]triazolo[1,5-a]pyridin-7-yloxy)-2-methoxy-5-methylphenyl)amino)-7-methoxyquinazolin-6-yl)oxy)-2-azabicyclo[2.2.1]heptan-2-yl)prop-2-en-1-one]: the GI50 was not above 50 nM.

In the case of `C=CC(=O)N1CC(Oc2cc3c(Nc4cc(C)c(Oc5ccn6ncnc6c5)cc4OC)ncnc3cc2OC)C1` [Example 19, 1-(3-((4-((4-([1,2,4]triazolo[1,5-a]pyridin-7-yloxy)-2-methoxy-5-methylphenyl)amino)-7-methoxyquinazolin-6-yl)oxy)azetidin-1-yl)prop-2-en-1-one], the concentration for 50% growth inhibition (GI50) is not above 50 nM.

As to `C=CC(=O)N1CCOc2cc3ncnc(Nc4cc(C)c(Oc5ccn6ncnc6c5)cc4OC)c3cc21` [Example 21, 1-(4-((4-([1,2,4]triazolo[1,5-a]pyridin-7-yloxy)-2-methoxy-5-methylphenyl)amino)-7,8-dihydro-6H-[1,4]oxazino[3,2-g]quinazolin-6-yl)prop-2-en-1-one], the GI50 fell in the range of 100 to 500 nM.

For the compound `C=CC(=O)Nc1cc2c(Nc3cc(C)c(Oc4ccn5ncnc5c4)cc3OC)ncnc2cc1N1CCC(N2CCOCC2)CC1` [Example 22, N-(4-((4-([1,2,4]triazolo[1,5-a]pyridin-7-yloxy)-2-methoxy-5-methylphenyl)amino)-7-(4-morpholinopiperidin-1-yl)quinazolin-6-yl)acrylamide], the GI50 is 50 to 100 nM.

As for `C=CC(=O)Nc1cc2c(Nc3cc(C)c(Oc4ccn5ncnc5c4)cc3OC)ncnc2cc1N1CCOCC1` [Example 23, N-(4-((4-([1,2,4]triazolo[1,5-a]pyridin-7-yloxy)-2-methoxy-5-methylphenyl)amino)-7-morpholinoquinazolin-6-yl)acrylamide], the GI50 is more than 500 nM.

On to `COc1cc(Oc2ccn3ncnc3c2)c(C)cc1Nc1ncnc2ccc(NC(=O)/C=C/CN(C)C)c(Cl)c12` [Example 26, (E)-N-(4-((4-([1,2,4]triazolo[1,5-a]pyridin-7-yloxy)-2-methoxy-5-methylphenyl)amino)-5-chloroquinazolin-6-yl)-4-(dimethylamino)but-2-enamide], for which the GI50 was not above 50 nM.

Take `C=CC(=O)N1CCN(c2ncc3ncnc(Nc4cc(C)c(Oc5ccn6ncnc6c5)cc4OC)c3n2)CC1` [Example 27, 1-(4-(8-((4-([1,2,4]triazolo[1,5-a]pyridin-7-yloxy)-2-methoxy-5-methylphenyl)amino)pyrimido[5,4-d]pyrimidin-2-yl)piperazin-1-yl)prop-2-en-1-one]: the GI50 is not above 50 nM.

`CC#CC(=O)Nc1cc2c(Nc3cc(C)c(Oc4ccn5ncnc5c4)cc3OC)ncnc2cc1OC` [Example 28, N-(4-((4-([1,2,4]triazolo[1,5-a]pyridin-7-yloxy)-2-methoxy-5-methylphenyl)amino)-7-methoxyquinazolin-6-yl)but-2-ynamide]: the GI50 was not above 50 nM.

On to `COc1cc2ncnc(Nc3cc(C)c(Oc4ccn5ncnc5c4)cc3OC)c2cc1NC(=O)/C=C/CNC1CCS(=O)(=O)CC1` [Example 38, (E)-N-(4-((4-([1,2,4]triazolo[1,5-a]pyridin-7-yloxy)-2-methoxy-5-methylphenyl)amino)-7-methoxyquinazolin-6-yl)-4-((1,1-dioxidotetrahydro-2H-thiopyran-4-yl)amino)but-2-enamide], for which the GI50 is not above 50 nM.

`COc1cc2ncnc(Nc3cc(C)c(Oc4ccn5ncnc5c4)cc3OC)c2cc1NC(=O)/C=C/CN1CC2(COC2)C1` [Example 40, (E)-N-(4-((4-([1,2,4]triazolo[1,5-a]pyridin-7-yloxy)-2-methoxy-5-methylphenyl)amino)-7-methoxyquinazolin-6-yl)-4-(2-oxa-6-azaspiro[3.3]heptan-6-yl)but-2-enamide]: the GI50 is not above 50 nM.

In the case of `COc1cc2ncnc(Nc3cc(C)c(Oc4ccn5ncnc5c4)cc3OC)c2cc1NC(=O)/C(F)=C/C1CCCN1C` (stereo not drawn) [Example 43, (Z)—N-(4-((4-([1,2,4]triazolo[1,5-a]pyridin-7-yloxy)-2-methoxy-5-methylphenyl)amino)-7-methoxyquinazolin-6-yl)-2-fluoro-3-(1-methylpyrrolidin-2-yl)acrylamide], the GI50 is not above 50 nM.

For the compound `COc1cc2ncnc(Nc3cc(C)c(Oc4ccn5ncnc5c4)cc3OC)c2cc1NC(=O)/C(F)=C\[C@@H]1CCCN1C` [Example 44, (S,E)-N-(4-((4-([1,2,4]triazolo[1,5-a]pyridin-7-yloxy)-2-methoxy-5-methylphenyl)amino)-7-methoxyquinazolin-6-yl)-2-fluoro-3-(1-methylpyrrolidin-2-yl)acrylamide], the GI50 was not above 50 nM.

On to `COc1cc2ncnc(Nc3cc(C)c(Oc4cc5ncnn5cn4)cc3OC)c2cc1NC(=O)/C(F)=C\[C@H]1CCCN1C` [Example 47, (R,E)-N-(4-((4-([1,2,4]triazolo[1,5-c]pyrimidin-7-yloxy)-2-methoxy-5-methylphenyl)amino)-7-methoxyquinazolin-6-yl)-2-fluoro-3-(1-methylpyrrolidin-2-yl)acrylamide], for which the concentration for 50% growth inhibition (GI50) was not above 50 nM.

In the case of `COc1cc2ncnc(Nc3cc(C)c(Oc4cc5ncnn5cn4)cc3OC)c2cc1NC(=O)/C(F)=C/[C@H]1CCCN1C` [Example 48, (R,Z)—N-(4-((4-([1,2,4]triazolo[1,5-c]pyrimidin-7-yloxy)-2-methoxy-5-methylphenyl)amino)-7-methoxyquinazolin-6-yl)-2-fluoro-3-(1-methylpyrrolidin-2-yl)acrylamide], the GI50 was not above 50 nM.

Take `COc1cc2ncnc(Nc3cc(F)c(Oc4ccn5ncnc5c4)cc3OC)c2cc1NC(=O)/C(F)=C\[C@H]1CCCN1C` [Example 49, (R,E)-N-(4-((4-([1,2,4]triazolo[1,5-a]pyridin-7-yloxy)-5-fluoro-2-methoxyphenyl)amino)-7-methoxyquinazolin-6-yl)-2-fluoro-3-(1-methylpyrrolidin-2-yl)acrylamide]: the GI50 was not above 50 nM.

Take `COc1cc2ncnc(Nc3cc(C)c(Oc4ccc5c(c4)ncn5C)cc3OC)c2cc1NC(=O)/C(F)=C/[C@H]1CCCN1C` [Example 56, (R,Z)-2-fluoro-N-(7-methoxy-4-((2-methoxy-5-methyl-4-((1-methyl-1H-benzo[d]imidazol-5-yl)oxy)phenyl)amino)quinazolin-6-yl)-3-(1-methylpyrrolidin-2-yl)acrylamide]: the GI50 was not above 50 nM.

For the compound `COc1cc2ncnc(Nc3cc(C)c(Oc4ccc5c(c4)ncn5C)cc3OC)c2cc1NC(=O)/C(F)=C\[C@H]1CCCN1C` [Example 57, (R,E)-2-fluoro-N-(7-methoxy-4-((2-methoxy-5-methyl-4-((1-methyl-1H-benzo[d]imidazol-5-yl)oxy)phenyl)amino)quinazolin-6-yl)-3-(1-methylpyrrolidin-2-yl)acrylamide], the GI50 was not above 50 nM.

Take `COc1cc2ncnc(Nc3cc(Cl)c(Oc4ccc5c(c4)ncn5C)cc3OC)c2cc1NC(=O)/C(F)=C/[C@H]1CCCN1C` [Example 58, (R,Z)—N-(4-((5-chloro-2-methoxy-4-((1-methyl-1H-benzo[d]imidazol-5-yl)oxy)phenyl)amino)-7-methoxyquinazolin-6-yl)-2-fluoro-3-(1-methylpyrrolidin-2-yl)acrylamide]: the GI50 was not above 50 nM.

For the compound `COc1cc2ncnc(Nc3cc(Cl)c(Oc4ccc5c(c4)ncn5C)cc3OC)c2cc1NC(=O)/C(F)=C\[C@H]1CCCN1C` [Example 59, (R,E)-N-(4-((5-chloro-2-methoxy-4-((1-methyl-1H-benzo[d]imidazol-5-yl)oxy)phenyl)amino)-7-methoxyquinazolin-6-yl)-2-fluoro-3-(1-methylpyrrolidin-2-yl)acrylamide], the GI50 was not above 50 nM.

`COc1cc2ncnc(Nc3cc(F)c(Oc4ccc5c(c4)ncn5C)cc3OC)c2cc1NC(=O)/C(F)=C\[C@H]1CCCN1C` [Example 60, (R,E)-2-fluoro-N-(4-((5-fluoro-2-methoxy-4-((1-methyl-1H-benzo[d]imidazol-5-yl)oxy)phenyl)amino)-7-methoxyquinazolin-6-yl)-3-(1-methylpyrrolidin-2-yl)acrylamide]: the GI50 was not above 50 nM.
